# Compound: C1=CC2=NC=CN=C2C=C1/C=C/3\C(=O)NC(=O)S3 + COc1cccc2cc(-c3nc([C@H]4CC[C@H](C(=O)O)CC4)n4ncnc(N)c34)[nH]c12 [OSI-027] (partner 0.5 µM)
# Test: relative viability (nuclei count vs DMSO), 5 days (fraction); higher = more cells survive
# Settings: first compound 0.2 µM
# Outline: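 Lung cancer cell lines were pin-tool dosed in 1536-well plates on the day after seeding, with either a lone drug or a fixed anchor-drug dose plus five library-drug doses (not always all listed) in √10 steps. Nuclei were counted on 4× images after 5 days. Relative viability is the ratio of treated-well to vehicle-well nuclei counts, with each value a median of duplicate plates.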
row,Cell Line,relative viability
1,LK-2,0.201
2,NCI-H2087,0.615
3,NCI-H2342,0.628
4,SK-MES-1,0.715
5,H3255,0.526
6,COR-L23,0.873
7,COR-L 105,0.729
8,LOU-NH91,0.673
9,ChaGo-K-1,0.544
10,NCI-H2170,0.729
11,NCI-H2405,0.648
12,HOP-62,0.833
13,HCC-44,0.656
14,SW 900,0.602
15,LU99A,0.295
16,BEN,0.288
17,NCI-H1648,0.313
18,NCI-H1563,0.76

# Same assay, conditions: first compound 0.6325 µM
row,Cell Line,relative viability
1,NCI-H522,0.717
2,NCI-H1623,0.421
3,NCI-H727,0.575
4,NCI-H1650,0.677
5,NCI-H1993,0.544
6,SW 1573,0.532
7,NCI-H838,0.399
8,LCLC-103H,0.377
9,NCI-H520,0.27
10,NCI-H2126,0.734
11,EMC-BAC-2,0.37
12,NCI-H2085,0.827
13,HCC-366,0.823
14,NCI-H1666,0.812
15,NCI-H596,0.677
16,LK-2,0.184
17,NCI-H2087,0.574

row,Cell Line,relative viability
1,NCI-H2342,0.632
2,SK-MES-1,0.577
3,H3255,0.627
4,COR-L23,0.74
5,COR-L 105,0.623
6,LOU-NH91,0.681
7,ChaGo-K-1,0.424
8,NCI-H2170,0.71
9,NCI-H2405,0.6
10,HOP-62,0.827
11,HCC-44,0.463
12,SW 900,0.608
13,LU99A,0.293
14,BEN,0.289
15,NCI-H1648,0.246
16,NCI-H1563,0.734

# Same assay, conditions: first compound 2 µM
row,Cell Line,relative viability
1,NCI-H522,0.562
2,NCI-H1623,0.253
3,NCI-H727,0.343
4,NCI-H1650,0.493
5,NCI-H1993,0.475
6,SW 1573,0.312
7,NCI-H838,0.226
8,LCLC-103H,0.308
9,NCI-H520,0.36
10,NCI-H2126,0.363
11,EMC-BAC-2,0.251
12,NCI-H2085,0.635
13,HCC-366,0.322
14,NCI-H1666,0.459
15,NCI-H596,0.532
16,LK-2,0.147
17,NCI-H2087,0.37
18,NCI-H2342,0.535
19,SK-MES-1,0.392
20,H3255,0.473
21,COR-L23,0.497
22,COR-L 105,0.435
23,LOU-NH91,0.464
24,ChaGo-K-1,0.352
25,NCI-H2170,0.679
26,NCI-H2405,0.225
27,HOP-62,0.607
28,HCC-44,0.225
29,SW 900,0.504

# Source: the supplement of paper PMC10307832
